In patent publication US10774046B2, “Inhibitors for the treatment of cancer and related methods” (UNIVERSITY OF LOUISVILLE RESEARCH FOUNDATION, INC., priority 2017, dated 2020):

Assays:
H460 cells [1] = assay: proliferation, viable cell count by trypan blue exclusion; assay type: cell-based, human; settings: for proliferation (cell counts relative to DMSO): H460, counts at 72 hours shown
Experimental: Cells were incubated in 20% trypan blue (Sigma) for 5 minutes. Cells excluding trypan blue were counted using a standard hemocytometer (Hausser Scientific) to determine total numbers of viable cells. Data are expressed as mean±SD of three experiments.
H460 non-small cell lung cancer cells were plated in 24 well plates and exposed to increasing concentrations of the indicated inhibitors of Formula IV (FBR1-02 corresponds to
DMSO was used as vehicle. After 24, 48 and 72 hours of exposure, cells were detached and viable cells were counted by Trypan blue exclusion (representative counts at 48 hours shown).
Method: H460 cells were plated in 24 well plates and exposed to increasing concentrations of FB4-31 to FB4-36 and 5MPN. DMSO was used as a vehicle. After 24, 48 and 72 hours of exposure, cells were detached, and viable cells were counted by Trypan blue exclusion (representative counts at 72 hours shown).

H460 cells [2] = assay: F2,6BP measurement in cells (coupled enzyme reaction); assay type: cell-based, human; settings: H460, effects at 2.5 μM
Experimental: Cells or tissues were prepared as previously described and F2,6BP content measured using a coupled enzyme reaction following a modification of the method of Van Schaftingen et al (VAN SCHAFTINGEN E et al. “A kinetic study of pyrophosphate:fructose-6-phosphate phosphotransferase from potato tubers. Application to a microassay of fructose 2,6-bisphosphate” Eur J Biochem (1982) Vol. 129, No. 1, pp. 191-195) and normalized to total cellular protein measured by the bicinchoninic acid assay (BCA, Thermo Scientific). For example, H460 cells were exposed to the indicated concentrations of MPN-2. In order to measure F2,6BP, cells were harvested, washed with PBS, lysed in NaOH/Tris acetate by heating at 80° C. and lysates neutralized to pH 7.2. F2,6BP content was measured using a coupled enzyme reaction following a modified method of Van Schaftingen et al (VAN SCHAFTINGEN E et al. “A kinetic study of pyrophosphate:fructose-6-phosphate phosphotransferase from potato tubers. Application to a microassay of fructose 2,6-bisphosphate” Eur J Biochem (1982) Vol. 129, No. 1, pp. 191-195). The F2,6BP concentration was normalized to total cellular protein measured by the bicinchoninic acid assay (BCA, Thermo Scientific). All data are expressed as the mean±SD of three experiments. Statistical significance was assessed by the two-sample t test (independent variable).
Method: In order to measure F26BP, H460 cells were exposed to increasing concentrations of the agents and were harvested, washed with PBS, lysed in NaOH/Tris acetate by heating at 80° C. and lysates neutralized to pH 7.2. F26BP content was measured using a coupled enzyme reaction following a modified method of Van Schaftingen et al. (Eur J Biochem. 1982; 129(1):191-195). The F26BP concentration was normalized to total cellular protein measured by the bicinchoninic acid assay (BCA, Thermo Scientific).

H460 cells [3] = assay: glycolysis assay (3H2O from 5-[3H]glucose); assay type: cell-based, human; settings: H460
Experimental: H460 cells were exposed to the indicated concentrations of MPN-2 and glycolysis production was examined. Cells growing in 6-well plates were incubated in 500 μl of complete medium containing 1 μCi of 5-[^3H]glucose per well for 60 min in 5% CO2 at 37° C. Media was collected, ^3H2O formed via glycolysis from the 5-[^3H]glucose measured and counts normalized as previously described. For example, the medium was then collected and centrifuged to pellet any suspended cells. To separate the ^3H2O formed via glycolysis from the 5-[^3H]glucose added to the medium, an evaporation technique in a sealed system was utilized. Briefly, 150 μl aliquots of medium were added to open tubes that were placed upright inside scintillation vials containing 1 ml of H2O. The scintillation vials were sealed, and the ^3H2O produced by glycolysis through enolase and released to the medium was allowed to equilibrate with the H2O in the outer vial for 48 h at 37° C. The amounts of ^3H2O that had diffused into the surrounding H2O was measured on a Tri-Carb 2910 liquid scintillation analyzer (Perkin Elmer) and compared with ^3H2O and 5-[^3H]glucose standards. Protein concentration was determined using the BCA assay and counts were normalized to protein concentration. All data are expressed as the mean±SD of three experiments. Statistical significance was assessed by the two-sample t test (independent variable).
Method: To examine glycolysis, H460 cells growing in 6-well plates were incubated in 500 μl of complete medium containing 1 μCi of 5-[^3H] glucose per well for 60 min in 5% CO2 at 37° C. The medium was then collected and centrifuged to pellet any suspended cells. To separate the ^3H2O formed via glycolysis from the 5-[^3H]glucose added to the medium, an evaporation technique in a sealed system was utilized. Briefly, 150 μl aliquots of medium were added to open tubes that were placed upright inside scintillation vials containing 1 ml of H2O. The scintillation vials were sealed, and the ^3H2O produced by glycolysis through enolase and released to the medium was allowed to equilibrate with the H2O in the outer vial for 48 h at 37° C. The amounts of ^3H2O that had diffused into the surrounding H2O was measured on a Tri-Carb 2910 liquid scintillation analyzer (Perkin Elmer) and compared with ^3H2O and 5-[^3H]glucose standards. Protein concentration was determined using the BCA assay and counts were normalized to protein concentration (previously described in CHESNEY et al. Oncotarget. 2014; 5(16):6670-6686.)

human recombinant PFKFB4 = human recombinant PFKFB4 (Homo sapiens, UniProt Q16877); assay: ADP-Glo kinase assay; assay type: biochemical
Experimental: The fructose-6-phosphate kinase activity of human recombinant PFKFB4 in the presence of DMSO±indicated 5MPN concentrations was assayed as previously described. The activity of 5MPN against 97 kinases was examined using a commercially available active-site dependent competition binding assay core service (KINOMEscanEDGE) that quantifies the capacity of test agents to compete with an immobilized, active-site directed ligand using a DNA-tagged kinase and immobilized ligand and compound. For example, enzyme inhibition was studied using an ADP-Glo assay. The effect of MPN-2 on the activity of recombinant human PFKFB4 enzyme was examined in an ADP-Glo assay (Promega), which measures ADP formed from a kinase reaction. ADP is converted into ATP, which is converted into light by a luciferase. PFKFB4 protein was exposed to MPN-2 at indicated concentrations in the presence of ATP and fructose-6-phosphate and following manufacturer's instructions, ADP-Glo and kinase detections reagents were added. The data are shown as the decrease in luminescence caused by MPN-2 relative to DMSO.
Method: The efficacy of Formula (VIII) in inhibition of the kinase activity of the PFKFB4 enzyme was examined by exposing recombinant human PFKFB4 protein to Formula (VIII) in the ADP-Glo kinase assay (Promega) which measures ADP formed through a kinase reaction. Briefly, recombinant protein, ATP, substrate and Formula (VIII) were incubated together for the kinase reaction followed by the addition of ADP-Glo reagent, used to terminate the kinase reaction. Lastly, a kinase detection reagent was added to convert the newly formed ADP to ATP which was measured by a luciferase reaction. Data are shown in FIG. 10 as the decrease in luminescence caused by Formula (VIII) relative to DMSO.
Method: The efficacy of FB4-32 and FB4-35 in inhibition of the kinase activity of the PFKFB4 enzyme was examined by exposing recombinant human PFKFB4 protein to FB4-32 and FB4-35 in the ADP-Glo kinase assay (Promega) which measures ADP formed through a kinase reaction. Briefly, recombinant protein, ATP, substrate and FB4-32 or FB4-35 were incubated together for the kinase reaction followed by the addition of ADP-Glo reagent to terminate the kinase reaction. Last, a kinase detection reagent was added to convert the newly formed ADP to ATP which was measured by a luciferase reaction. Data are shown as the decrease in luminescence caused by FB4-32 and FB4-35 relative to DMSO.

[4] = pharmacokinetic profile after IV and oral administration; assay type: in vivo; settings: mice
Experimental: Method: The pharmacokinetic profile of FB4-32 was determined in mice dosed orally and IV with FB4-32. Nine time points (n=3 per time point) were used to determine indicated PK parameters calculated using WinNonLin v5.0. Plasma samples were extracted using acetonitrile and analyzed by LC/MS-MS using a PhenomexSynergi Polar-RP 4 micron 50×2.0 mm column eluted with a biphasic mobile phase (0.5% formic acid in acetonitrile and water).

Sequence of human recombinant PFKFB4 (Q16877 whole entry): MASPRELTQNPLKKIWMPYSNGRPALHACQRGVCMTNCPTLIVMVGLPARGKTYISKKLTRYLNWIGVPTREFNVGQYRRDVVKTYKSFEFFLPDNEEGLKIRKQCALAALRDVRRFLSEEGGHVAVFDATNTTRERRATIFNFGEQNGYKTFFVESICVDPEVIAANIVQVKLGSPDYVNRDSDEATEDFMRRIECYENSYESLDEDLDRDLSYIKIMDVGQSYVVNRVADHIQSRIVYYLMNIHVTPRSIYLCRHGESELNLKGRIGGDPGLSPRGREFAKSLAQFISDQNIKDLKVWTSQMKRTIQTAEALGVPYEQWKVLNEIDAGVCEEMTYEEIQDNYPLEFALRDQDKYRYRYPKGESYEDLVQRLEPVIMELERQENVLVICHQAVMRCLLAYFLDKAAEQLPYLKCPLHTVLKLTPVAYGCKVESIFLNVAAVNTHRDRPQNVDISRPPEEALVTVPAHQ

SMILES | proliferation (H460 cells [1]; H460, Formula IV compounds, counts at 48 hours shown) | F26BP (normalized to cellular protein) (H460 cells [2]) | proliferation (cell counts relative to DMSO) (H460 cells [1]) | glycolysis (production of 3H2O relative to DMSO) (H460 cells [3]) | kinase activity of the PFKFB4 enzyme (luminescence relative to DMSO) (human recombinant PFKFB4) | oral bioavailability [4]
O=[N+]([O-])OCCCCCNc1ccnc2ccccc12 [FBR1-02] | decreased proliferation | – | – | – | – | –
COc1cccc2c(NCCCCCNC(=O)CBr)ccnc12 [FB4-35, 2-Bromo-N-(5-((8-methoxyquinolin-4-yl)amino)pentyl)acetamide] | – | decrease | decreased the proliferation of H460 cells in vitro with higher potency than 5MPN | dose-dependent decrease | inhibited | –
COc1cccc2c(NCCCCCCNC(=O)C(F)(F)F)ccnc12 [FB4-32, 2,2,2-Trifluoro-N-(6-((8-methoxyquinolin-4-yl)amino)hexyl)acetamide] | – | decrease | decreased the proliferation of H460 cells in vitro with higher potency than 5MPN | dose-dependent decrease | inhibited | found to have oral bioavailability
